Reference: patent US20240174662A1, “SMALL MOLECULE INHIBITORS OF SALT INDUCIBLE KINASES” (Janssen Biotech, Inc., priority 2021, published 2024)

Target: SIK2 (Homo sapiens (Human), UniProt Q9H0K1)
Test: SIK2 Enzymatic Assay Version 2 (High ATP)
Type: biochemical
Settings: 3 mM ATP and 200 μM HDAC5tide final, ADP-Glo Max luminescence
Method: All steps were performed at room temperature. Compounds were pre-plated onto an assay plate using an Echo acoustic dispenser (Labcyte, […] or […]) at 80 nL per well. Enzyme prepared in assay buffer at 6 nM (2× final concentration) was added at 4 μL per well using the Multidrop Combi (Thermo Fisher-used for all additions in this assay) to the assay plate, spun for 1 min at 1000 rpm (Allegra 6KR Beckman Coulter centrifuge), and incubated with compound for 30 minutes. […] ADP-Glo Max Reagent (prepared and aliquoted as per manufacturer instructions) was then added at 8 μL per well, spun and incubated for 2 hours. ADP-Glo Max Detection (prepared and aliquoted as per manufacturer instructions) was added at 8 μL per well to the assay plate, which was spun and incubated for 1 hour. The plate was then read on the Pherastar (BMG Labtech) using a luminescence read. Gain was set between 2200-2500.

Chain of SIK2 (Q9H0K1 whole entry, species assumed): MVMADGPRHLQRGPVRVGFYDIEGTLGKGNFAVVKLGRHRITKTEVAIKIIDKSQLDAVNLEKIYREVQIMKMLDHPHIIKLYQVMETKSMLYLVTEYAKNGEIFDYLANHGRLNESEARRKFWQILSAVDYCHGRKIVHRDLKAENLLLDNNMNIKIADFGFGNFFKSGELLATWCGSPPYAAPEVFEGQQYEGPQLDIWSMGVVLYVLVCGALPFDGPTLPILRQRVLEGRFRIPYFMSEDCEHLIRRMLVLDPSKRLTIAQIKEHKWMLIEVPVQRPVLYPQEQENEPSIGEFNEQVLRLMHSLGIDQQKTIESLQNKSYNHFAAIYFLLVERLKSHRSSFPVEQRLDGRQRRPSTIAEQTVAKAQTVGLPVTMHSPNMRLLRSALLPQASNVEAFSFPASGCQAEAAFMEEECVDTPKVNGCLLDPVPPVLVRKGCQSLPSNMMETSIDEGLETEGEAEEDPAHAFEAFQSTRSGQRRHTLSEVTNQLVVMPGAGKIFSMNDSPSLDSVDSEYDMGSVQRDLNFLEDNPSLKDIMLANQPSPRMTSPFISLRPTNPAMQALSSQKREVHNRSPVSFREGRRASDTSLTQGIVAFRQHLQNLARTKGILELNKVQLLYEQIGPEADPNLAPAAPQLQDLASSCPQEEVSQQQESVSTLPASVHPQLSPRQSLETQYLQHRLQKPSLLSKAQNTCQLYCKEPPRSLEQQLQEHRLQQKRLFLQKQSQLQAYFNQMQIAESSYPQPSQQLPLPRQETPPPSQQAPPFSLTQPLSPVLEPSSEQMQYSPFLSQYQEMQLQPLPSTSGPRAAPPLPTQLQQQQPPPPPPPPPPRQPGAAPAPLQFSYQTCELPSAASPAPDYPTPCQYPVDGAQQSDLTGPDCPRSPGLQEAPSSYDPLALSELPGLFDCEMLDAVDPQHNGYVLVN

Row | Compound | IC50 [nM]
1 | Cc1cc(Nc2cc3cc(-c4c(OC[C@H]5CCN5C)cnn4C)ccn3n2)ncn1 [Example 55, 5-[2-methyl-4-[[(2R)-1-methylazetidin-2-yl]methoxy]pyrazol-3-yl]-N-(6-methylpyrimidin-4-yl)pyrazolo[1,5-a]pyridin-2-amine] | 1.3
2 | CCN1CC[C@@H]1COc1cnn(C)c1-c1ccn2nc(Nc3cc(OC)ncn3)cc2c1 [Example 167, 5-[4-[[(2R)-1-ethylazetidin-2-yl]methoxy]-2-methyl-pyrazol-3-yl]-N-(6-methoxypyrimidin-4-yl)pyrazolo[1,5-a]pyridin-2-amine] | 2.7
3 | COc1nnc(Nc2cc3cc(-c4c(OC[C@H]5CCN5C)cnn4C)ccn3n2)cc1C [Example 147, N-(6-methoxy-5-methyl-pyridazin-3-yl)-5-[2-methyl-4-[[(2R)-1-methylazetidin-2-yl]methoxy]pyrazol-3-yl]pyrazolo[1,5-a]pyridin-2-amine] | 0.9
4 | CO[C@H]1CNC[C@@H]1Oc1cnn(C)c1-c1ccn2nc(NC(=O)C3CC3)cc2c1 (racemic) [Example 421, (rac-trans)-N-[5-[4-(4-methoxypyrrolidin-3-yl)oxy-2-methyl-pyrazol-3-yl]pyrazolo[1,5-a]pyridin-2-yl]cyclopropanecarboxamide] | 116
5 | COC1(COc2noc(C)c2-c2ccn3nc(NC(=O)C4CC4)cc3c2)CCNC1 (racemic) [Example 205, (RS)—N-[5-[3-[(3-methoxypyrrolidin-3-yl)methoxy]-5-methyl-isoxazol-4-yl]pyrazolo[1,5-a]pyridin-2-yl]cyclopropanecarboxamide] | 23.5
6 | C[C@@H]1NC[C@H]1OCc1cnn(C)c1-c1ccn2nc(NC(=O)C3CC3)cc2c1 [Example 187, N-[5-[2-methyl-4-[[(2S,3R)-2-methylazetidin-3-yl]oxymethyl]pyrazol-3-yl]pyrazolo[1,5-a]pyridin-2-yl]cyclopropanecarboxamide] | 23.5
7 | Cn1ncc(OC[C@H]2CCN2C[C@H]2CCCO2)c1-c1ccn2nc(NC(=O)C3CC3)cc2c1 [Example 259, N-(5-(1-methyl-4-(((R)-1-(((R)-tetrahydrofuran-2-yl)methyl)azetidin-2-yl)methoxy)-1H-pyrazol-5-yl)pyrazolo[1,5-a]pyridin-2-yl)cyclopropanecarboxamide] | 46.5
8 | Cc1cncc(Nc2cc3cc(-c4c(CO[C@@H]5CN(C)C[C@@H]5C)cnn4C)ccn3n2)n1 (stereo in doubt) [Example 379, CIS—*S, *S-5-[4-[(1,4-dimethylpyrrolidin-3-yl)oxymethyl]-2-methyl-pyrazol-3-yl]-N-(6-methylpyrazin-2-yl)pyrazolo[1,5-a]pyridin-2-amine] | 2.2
9 | CN1CCC(Oc2cnn(C)c2-c2ccn3nc(NC(=O)C4CC4)cc3c2)CC1 [Example 492, N-[5-[2-methyl-4-[(1-methyl-4-piperidyl)oxy]pyrazol-3-yl]pyrazolo[1,5-a]pyridin-2-yl]cyclopropanecarboxamide] | 432
10 | CCN1CC[C@@H]1COc1cnn(C)c1-c1ccn2nc(Nc3cc(C)nc(C(F)(F)F)n3)cc2c1 [Example 73, 5-[4-[[(2R)-1-ethylazetidin-2-yl]methoxy]-2-methyl-pyrazol-3-yl]-N-[6-methyl-2-(trifluoromethyl)pyrimidin-4-yl]pyrazolo[1,5-a]pyridin-2-amine] | < 0.847
11 | Cn1ncc(OC[C@@H]2CNCCO2)c1-c1ccn2nc(NC(=O)C3CC3)cc2c1 [Example 230, N-[5-[2-methyl-4-[[(2S)-morpholin-2-yl]methoxy]pyrazol-3-yl]pyrazolo[1,5-a]pyridin-2-yl]cyclopropanecarboxamide] | 41.8
12 | Cn1ncc(OC[C@H]2CCN2CCF)c1-c1ccn2nc(NC(=O)C3CC3)cc2c1 [Example 241, N-[5-[4-[[(2R)-1-(2-fluoroethyl)azetidin-2-yl]methoxy]-2-methyl-pyrazol-3-yl]pyrazolo[1,5-a]pyridin-2-yl]cyclopropanecarboxamide] | 3.5
13 | Cc1onc(OC[C@H]2CN(C)CCO2)c1-c1ccn2nc(NC(=O)C3CC3)cc2c1 [Example 79, N-[5-[5-methyl-3-[[(2R)-4-methylmorpholin-2-yl]methoxy]isoxazol-4-yl]pyrazolo[1,5-a]pyridin-2-yl]cyclopropanecarboxamide] | 120
14 | Cc1cc(Nc2cc3cc(-c4c(OC[C@H]5CCN5C)cnn4C)ccn3n2)nc(C(F)(F)F)n1 [Example 63, 5-[2-methyl-4-[[(2R)-1-methylazetidin-2-yl]methoxy]pyrazol-3-yl]-N-[6-methyl-2-(trifluoromethyl)pyrimidin-4-yl]pyrazolo[1,5-a]pyridin-2-amine] | 1.1
15 | Cn1ncc(OC[C@H]2CCN2Cc2ccccc2)c1-c1ccn2nc(NC(=O)C3CC3)cc2c1 [Example 429, N-[5-[4-[[(2R)-1-benzylazetidin-2-yl]methoxy]-2-methyl-pyrazol-3-yl]pyrazolo[1,5-a]pyridin-2-yl]cyclopropanecarboxamide] | 99.9
16 | Cc1onc(OCC2(C(N)=O)CNC2)c1-c1ccn2nc(NC(=O)C3CC3)cc2c1 [Example 198, 3-[[4-[2-(cyclopropanecarbonylamino)pyrazolo[1,5-a]pyridin-5-yl]-5-methyl-isoxazol-3-yl]oxymethyl]azetidine-3-carboxamide] | 28.7
17 | CCC1(COc2cnn(C)c2-c2ccn3nc(NC(=O)C4CC4)cc3c2)CN(C)C1 [Example 408, N-[5-[4-[(3-ethyl-1-methyl-azetidin-3-yl)methoxy]-2-methyl-pyrazol-3-yl]pyrazolo[1,5-a]pyridin-2-yl]cyclopropanecarboxamide] | 79.5
18 | CCN1CC[C@@H]1COc1cnn(C)c1-c1ccn2nc(Nc3ccc4nc(C)cn4n3)cc2c1 [Example 174, N-[5-[4-[[(2R)-1-ethylazetidin-2-yl]methoxy]-2-methyl-pyrazol-3-yl]pyrazolo[1,5-a]pyridin-2-yl]-2-methyl-imidazo[1,2-b]pyridazin-6-amine] | < 0.847
19 | Cc1nc(Nc2cc3cc(-c4c(OC[C@H]5CCN5C)cnn4C)ccn3n2)cc(C(F)(F)F)n1 [Example 122, 5-[2-methyl-4-[[(2R)-1-methylazetidin-2-yl]methoxy]pyrazol-3-yl]-N-[2-methyl-6-(trifluoromethyl)pyrimidin-4-yl]pyrazolo[1,5-a]pyridin-2-amine] | 3.6
20 | CCN1CC[C@@H]1COc1cnn(C)c1-c1ccn2nc(Nc3ncc(C)c(C)n3)cc2c1 [Example 165, N-(4,5-dimethylpyrimidin-2-yl)-5-[4-[[(2R)-1-ethylazetidin-2-yl]methoxy]-2-methyl-pyrazol-3-yl]pyrazolo[1,5-a]pyridin-2-amine] | 26.2
21 | Cc1onc(OC[C@H]2CN(C)CC(C)(C)O2)c1-c1ccn2nc(NC(=O)C3CC3)cc2c1 [Example 214, N-[5-[5-methyl-3-[[(2R)-4,6,6-trimethylmorpholin-2-yl]methoxy]isoxazol-4-yl]pyrazolo[1,5-a]pyridin-2-yl]cyclopropanecarboxamide] | 15.8
22 | Cc1onc(O[C@@H]2CNC[C@@H]2F)c1-c1ccn2nc(NC(=O)C3CC3)cc2c1 (racemic) [Example 208, (rac-cis)-N-[5-[3-(4-fluoropyrrolidin-3-yl)oxy-5-methyl-isoxazol-4-yl]pyrazolo[1,5-a]pyridin-2-yl]cyclopropanecarboxamide] | 11.5
23 | Cc1onc(OC[C@@H](N)c2ccccn2)c1-c1ccn2nc(NC(=O)C3CC3)cc2c1 [Example 223, N-[5-[3-[(2S)-2-amino-2-(2-pyridyl)ethoxy]-5-methyl-isoxazol-4-yl]pyrazolo[1,5-a]pyridin-2-yl]cyclopropanecarboxamide] | 30.7
24 | CN1CC[C@H](Oc2cnn(C(F)F)c2-c2ccn3nc(NC(=O)C4CC4)cc3c2)C1 [Example 470, N-[5-[2-(difluoromethyl)-4-[(3S)-1-methylpyrrolidin-3-yl]oxy-pyrazol-3-yl]pyrazolo[1,5-a]pyridin-2-yl]cyclopropanecarboxamide] | 143
25 | Cc1cc(C)c(Nc2cc3cc(-c4c(OC[C@H]5CCN5C)cnn4C)ccn3n2)nn1 [Example 61, N-(4,6-dimethylpyridazin-3-yl)-5-[2-methyl-4-[[(2R)-1-methylazetidin-2-yl]methoxy]pyrazol-3-yl]pyrazolo[1,5-a]pyridin-2-amine] | 1140
26 | CN1CC[C@@H]1COc1cnn(C)c1-c1ccn2nc(NC(=O)[C@H]3C[C@H]3c3ccccc3)cc2c1 [Example 158, (1S,2R)—N-[5-[2-methyl-4-[[(2R)-1-methylazetidin-2-yl]methoxy]pyrazol-3-yl]pyrazolo[1,5-a]pyridin-2-yl]-2-phenyl-cyclopropanecarboxamide] | 47.7
27 | Cc1ccc(Nc2cc3cc(-c4c(OC[C@H]5CCCN5C)cnn4C)ccn3n2)nn1 [Example 287, 5-[2-methyl-4-[[(2R)-1-methylpyrrolidin-2-yl]methoxy]pyrazol-3-yl]-N-(6-methylpyridazin-3-yl)pyrazolo[1,5-a]pyridin-2-amine] | 37.2
28 | Cc1snc(O[C@H]2CCNC2)c1-c1ccn2nc(NC(=O)C3CC3)cc2c1 [Example 330, N-[5-[5-methyl-3-[(3S)-pyrrolidin-3-yl]oxy-isothiazol-4-yl]pyrazolo[1,5-a]pyridin-2-yl]cyclopropanecarboxamide] | 35.2
29 | C[C@H]1CN(C)[C@H]1COc1cnn(C)c1-c1ccn2nc(NC(=O)C3CC3)cc2c1 [Example 437, N-[5-[4-[[(2R,3S)-1,3-dimethylazetidin-2-yl]methoxy]-2-methyl-pyrazol-3-yl]pyrazolo[1,5-a]pyridin-2-yl]cyclopropanecarboxamide] | 85.6
